Experimental data from ChEMBL document CHEMBL1201862, “PubChem BioAssay data set” (2004).
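Values below derive from 48-hour exposures of cells grown in 96-well plates, with endpoints linearly interpolated between the two concentrations bracketing the appropriate inhibition level. The concentration for 50% growth inhibition is given as GI50.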 Active and inactive are the calls of the source. Rule as the data show it: active = GI50 up to about 1.1 µM and inactive = higher.

Columns and labels:
Assay in all cases: DTP human tumour cell line panel, 48 h
[1] = test system: 786-0
[2] = test system: A498
[3] = test system: A549
[4] = test system: ACHN
[5] = test system: BT-549
[6] = test system: CAKI-1
[7] = test system: CCRF-CEM
[8] = test system: COLO 205
[9] = test system: DU-145
[10] = test system: EKVX
[11] = test system: HCC 2998
[12] = test system: HCT-116
[13] = test system: HCT-15
[14] = test system: HL-60
[15] = test system: HOP-62
[16] = test system: HOP-92
[17] = test system: HT-29
[18] = test system: Hs-578T
[19] = test system: IGROV-1
[20] = test system: K562
[21] = test system: KM12
[22] = test system: LOX IMVI
[23] = test system: M14
[24] = test system: MCF7
[25] = test system: MDA-MB-231
[26] = test system: MDA-MB-435
[27] = test system: MDA-N
[28] = test system: MOLT-4
[29] = test system: Malme-3M
[30] = test system: NCI-H226
[31] = test system: NCI-H23
[32] = test system: NCI-H460
[33] = test system: NCI-H522
[34] = test system: NCI/ADR-RES
[35] = test system: OVCAR-3
[36] = test system: OVCAR-4
[37] = test system: OVCAR-5
[38] = test system: OVCAR-8
[39] = test system: PC-3
[40] = test system: RPMI-8226
[41] = test system: RXF 393
[42] = test system: SF-268
[43] = test system: SF-295
[44] = test system: SF-539
[45] = test system: SK-MEL-28
[46] = test system: SK-MEL-5
[47] = test system: SK-OV-3
[48] = test system: SN12C
[49] = test system: SNB-19
[50] = test system: SNB-75
[51] = test system: SR
[52] = test system: SW-620
[53] = test system: T47D
[54] = test system: TK-10
[55] = test system: U-251
[56] = test system: UACC-257
[57] = test system: UACC-62
[58] = test system: UO-31
[59] = test system: SK-MEL-2

## Cc1ccc(S(=O)(=O)N2CCN(S(=O)(=O)c3ccc(C)cc3)CCN(S(=O)(=O)c3ccc(C)cc3)Cc3cc(Br)c(Br)cc3CN(S(=O)(=O)c3ccc(C)cc3)CC2)cc1
[1]
  GI50: > 100 µM (inactive)
[2]
  GI50: > 100 µM (inactive)
[3]
  GI50: > 100 µM (inactive)
[4]
  GI50: > 100 µM (inactive)
[5]
  GI50: > 100 µM (inactive)
[6]
  GI50: > 100 µM (inactive)
[7]
  GI50: > 100 µM (inactive)
[8]
  GI50: > 100 µM (inactive)
[9]
  GI50: > 100 µM (inactive)
[10]
  GI50: 68.2 µM (inactive)
[11]
  GI50: > 100 µM (inactive)
[12]
  GI50: > 100 µM (inactive)
[13]
  GI50: > 100 µM
[14]
  GI50: > 100 µM (inactive)
[15]
  GI50: > 100 µM (inactive)
[16]
  GI50: 23.6 µM (inactive)
[17]
  GI50: > 100 µM (inactive)
[18]
  GI50: > 100 µM (inactive)
[19]
  GI50: 85.5 µM (inactive)
[20]
  GI50: > 100 µM (inactive)
[21]
  GI50: 97.7 µM (inactive)
[22]
  GI50: 79.4 µM (inactive)
[23]
  GI50: 19.1 µM (inactive)
[24]
  GI50: > 100 µM (inactive)
[25]
  GI50: 23.3 µM (inactive)
[26]
  GI50: > 100 µM (inactive)
[27]
  GI50: 66.8 µM (inactive)
[28]
  GI50: > 100 µM (inactive)
[29]
  GI50: 44.9 µM (inactive)
[30]
  GI50: 46.6 µM (inactive)
[31]
  GI50: > 100 µM (inactive)
[32]
  GI50: > 100 µM (inactive)
[33]
  GI50: 52 µM (inactive)
[34]
  GI50: > 100 µM (inactive)
[35]
  GI50: > 100 µM (inactive)
[36]
  GI50: 44.1 µM (inactive)
[37]
  GI50: 92.3 µM (inactive)
[38]
  GI50: > 100 µM (inactive)
[39]
  GI50: 46.9 µM (inactive)
[40]
  GI50: > 100 µM (inactive)
[41]
  GI50: > 100 µM (inactive)
[42]
  GI50: > 100 µM (inactive)
[43]
  GI50: > 100 µM (inactive)
[44]
  GI50: > 100 µM (inactive)
[45]
  GI50: > 100 µM (inactive)
[46]
  GI50: > 100 µM (inactive)
[47]
  GI50: > 100 µM (inactive)
[48]
  GI50: > 100 µM (inactive)
[49]
  GI50: 43.5 µM (inactive)
[50]
  GI50: 55.6 µM (inactive)
[51]
  GI50: > 100 µM (inactive)
[52]
  GI50: 97.7 µM (inactive)
[53]
  GI50: > 100 µM (inactive)
[54]
  GI50: 69.5 µM (inactive)
[55]
  GI50: 82 µM (inactive)
[56]
  GI50: 37.2 µM (inactive)
[57]
  GI50: > 100 µM (inactive)
[58]
  GI50: > 100 µM (inactive)

## SC1=Nc2ccccc2-c2nc(-c3cccc(Cl)c3)cc(-c3ccccc3)c2C1
[1]
  GI50: 0.971 µM (active)
[2]
  GI50: 2.02 µM (inactive)
[3]
  GI50: 1.75 µM (inactive)
[4]
  GI50: 0.811 µM (active)
[5]
  GI50: 5 µM (inactive)
[6]
  GI50: 2 µM (inactive)
[7]
  GI50: 2.36 µM (inactive)
[8]
  GI50: 7.82 µM (inactive)
[9]
  GI50: 5.36 µM (inactive)
[10]
  GI50: 3.54 µM (inactive)
[11]
  GI50: 3.24 µM (inactive)
[12]
  GI50: 1.64 µM (inactive)
[13]
  GI50: 7.08 µM
[14]
  GI50: 15 µM (inactive)
[15]
  GI50: 1.86 µM (inactive)
[16]
  GI50: 1.09 µM (active)
[17]
  GI50: 2.38 µM (inactive)
[18]
  GI50: 2.05 µM (inactive)
[19]
  GI50: 0.678 µM (active)
[20]
  GI50: 4.86 µM (inactive)
[21]
  GI50: 4.53 µM (inactive)
[22]
  GI50: 3.15 µM (inactive)
[23]
  GI50: 4.61 µM (inactive)
[24]
  GI50: 5.04 µM (inactive)
[25]
  GI50: 1.64 µM (inactive)
[26]
  GI50: 9.02 µM (inactive)
[27]
  GI50: 3.48 µM (inactive)
[28]
  GI50: 19.6 µM (inactive)
[29]
  GI50: 4.35 µM (inactive)
[30]
  GI50: 3.68 µM (inactive)
[31]
  GI50: 5.07 µM (inactive)
[32]
  GI50: 1.3 µM (inactive)
[33]
  GI50: 2.06 µM (inactive)
[34]
  GI50: 2.04 µM (inactive)
[35]
  GI50: 3.4 µM (inactive)
[36]
  GI50: 0.347 µM (active)
[37]
  GI50: 5.77 µM (inactive)
[38]
  GI50: 1.07 µM (active)
[39]
  GI50: 7.57 µM (inactive)
[40]
  GI50: 3.2 µM (inactive)
[41]
  GI50: 2.81 µM (inactive)
[42]
  GI50: 3.79 µM (inactive)
[43]
  GI50: 3.37 µM (inactive)
[44]
  GI50: 1.69 µM (inactive)
[45]
  GI50: 9.12 µM (inactive)
[59]
  GI50: 5.25 µM (inactive)
[46]
  GI50: 26.8 µM (inactive)
[47]
  GI50: 2.11 µM (inactive)
[48]
  GI50: 2.08 µM (inactive)
[49]
  GI50: 1.2 µM (inactive)
[50]
  GI50: 1.83 µM (inactive)
[51]
  GI50: 11.2 µM (inactive)
[52]
  GI50: 2.98 µM (inactive)
[53]
  GI50: 2.19 µM (inactive)
[55]
  GI50: 1.19 µM (inactive)
[56]
  GI50: 5.9 µM (inactive)
[57]
  GI50: 1.61 µM (inactive)
[58]
  GI50: 1.93 µM (inactive)
